Our source for the IC50 values is patent publication US8962608B2, “Cycloalkylnitrile pyrazole carboxamides as janus kinase inhibitors” (Merck Sharp & Dohme Corp., priority 2011, dated 2015).

Test [1] addresses JAK2 (recombinant purified GST-tagged catalytic domain) (Homo sapiens (Human), UniProt O60674). Put plainly: biochemical.
In test [2] the target is JAK1 (recombinant purified GST-tagged catalytic domain) (Homo sapiens (Human), UniProt P23458). Put plainly: biochemical.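 Further: biochemical assay with HTRF read-out.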
JAK1 (recombinant purified GST-tagged catalytic domain), sequence (P23458 875-1153): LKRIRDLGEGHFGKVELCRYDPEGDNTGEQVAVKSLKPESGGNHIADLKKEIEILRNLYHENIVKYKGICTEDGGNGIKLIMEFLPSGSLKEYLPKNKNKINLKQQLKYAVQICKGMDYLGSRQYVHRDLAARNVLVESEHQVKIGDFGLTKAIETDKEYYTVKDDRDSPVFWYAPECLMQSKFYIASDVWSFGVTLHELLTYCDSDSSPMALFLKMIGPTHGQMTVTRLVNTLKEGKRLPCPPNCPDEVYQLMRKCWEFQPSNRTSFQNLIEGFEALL

JAK2 (recombinant purified GST-tagged catalytic domain), sequence (O60674 849-1124): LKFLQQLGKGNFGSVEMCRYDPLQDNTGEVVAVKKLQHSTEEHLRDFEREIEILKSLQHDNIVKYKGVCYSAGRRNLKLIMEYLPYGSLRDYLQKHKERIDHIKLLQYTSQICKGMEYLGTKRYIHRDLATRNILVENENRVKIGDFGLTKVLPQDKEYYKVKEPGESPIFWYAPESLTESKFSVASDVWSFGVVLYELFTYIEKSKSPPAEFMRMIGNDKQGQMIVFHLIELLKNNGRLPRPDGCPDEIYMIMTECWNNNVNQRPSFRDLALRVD

One may read the IC50 as the concentration that gives 50% inhibition. In the case of `CS(=O)(=O)c1ccc(Nc2nn(C3CCCC[C@H]3C#N)cc2C(N)=O)cc1` (mixture of isomers) [Example 2-14, 1-[(1S,2R and 1R,2S)-2-cyanocyclohexyl]-3-{[4-(methylsulfonyl)phenyl]amino}-1H-pyrazole-4-carboxamide], the IC50 in test [1] is 18 nM.
As for `CC1(C)CN([C@H]2CC[C@H](n3cc(C(N)=O)c(Nc4ccc([C@H](O)C(F)(F)F)cc4)n3)[C@@H](C#N)C2)C1` (single isomer, unassigned) [Example 28-93, 1-[(1S,2S,4S or 1R,2R,4R)-2-cyano-4-(3,3-dimethylazetidin-1-yl)cyclohexyl]-3-({4-[(1S or 1R)-2,2,2-trifluoro-1-hydroxyethyl]phenyl}amino)-1H-pyrazole-4-carboxamide], the IC50 in test [1] was determined as 5 nM.
Same read-out and setting: the figure for `CN(C(C1CC1)C1CC1)[C@@H]1CC[C@H](n2cc(C(N)=O)c(Nc3ccc(S(=O)(=O)C(F)(F)F)cc3)n2)[C@@H](C#N)C1` (single isomer, unassigned) [Example 28-179, 1-{(1S,2S,4R or 1R,2R,4S)-2-cyano-4-[(dicyclopropyl-methyl)(methyl)amino]cyclo-hexyl}-3-({4-[(trifluoromethyl)sulfonyl]phen-yl}amino)-1H-pyrazole-4-carboxamide] is 170 nM; for `N#C[C@@H]1C[C@H](OCC2CC2)CC[C@H]1n1cc(C(N)=O)c(Nc2ccc([C@H](O)C(F)(F)F)cc2)n1` (single isomer, unassigned) [Example 26-6, 1-[(1R,2R,4R or 1S,2S,4S)-2-cyano-4-(cyclopropylmethoxy)cyclohexyl]-3-({4-[(1S or 1R)-2,2,2-trifluoro-1-hydroxyethyl]phenyl}amino)-1H-pyrazole-4-carboxamide] it is 32 nM.
The same measure, in the same setting: the figure for `N#C[C@H]1C[C@@H](N2CCC2)CC[C@@H]1n1cc(C(N)=O)c(Nc2ccc(Cl)c(F)c2)n1` (single isomer, unassigned) [Example 28-36, 1-[(1S,2S,4S or 1R,2R,4R)-4-azetidin-1-yl-2-cyanocyclohexyl]-3-[(4-chloro-3-fluorophenyl)amino]-1H-pyrazole-4-carboxamide] is 84 nM.
Same read-out and setting: the figure for `CN([C@H]1CCC(n2cc(C(N)=O)c(Nc3ccc(Cl)cc3)n2)[C@@H](C#N)C1)C1(C)COC1` (single isomer, unassigned) [Example 28-232, 3-[(4-chlorophenyl)amino]-1-{(1S,2S,4S or 1R,2R,4R)-2-cyano-4-[methyl(3-methyloxetan-3-yl)amino]cyclohexyl}-1H-pyrazole-4-carboxamide] is 7 nM; for `N#C[C@@H]1CCCC[C@H]1n1cc(C(N)=O)c(Nc2ccc(S(=O)(=O)C(F)F)cc2)n1` (single isomer, unassigned) [Example 43-5, 1-[(1S,2S or 1R,2R)-2-cyanocyclohexyl]-3-({4-[(difluoromethyl)sulfonyl]phenyl}amino)-1H-pyrazole-4-carboxamide] it is 28 nM; for `N#C[C@H]1C[C@@H](NCC(F)F)CC[C@@H]1n1cc(C(N)=O)c(Nc2ccc(S(=O)(=O)C(F)(F)F)cc2)n1` (single isomer, unassigned) [Example 28-165, 1-{(1S,2S,4S or 1R,2R,4R)-2-cyano-4-[(2,2-difluoroethyl)amino]cyclohexyl}-3-({4-[(trifluoro-methyl)sulfonyl]phenyl}amino)-1H-pyrazole-4-carboxamide] it is 4 nM.
Turning to `CCNC1CCC(n2cc(C(N)=O)c(Nc3ccc(S(=O)(=O)C(F)(F)F)cc3)n2)[C@@H](C#N)C1` (mixture of isomers) [Example 27-5, 1-[(1S,2S and 1R,2R)-2-cyano-4-(ethylamino)cyclohexyl]-3-({4-[(trifluoromethyl)sulfonyl]phenyl}amino)-1H-pyrazole-4-carboxamide], the 50% inhibitory concentration (IC50) in test [1] amounted to 11 nM.
Same read-out and setting: in the case of `CC1(N[C@H]2CCC(n3cc(C(N)=O)c(Nc4ccc(Cl)cc4)n3)[C@@H](C#N)C2)COC1` (single isomer, unassigned) [Example 28-207, 3-[(4-chlorophenyl)amino]-1-{(1S,2S,4S or 1R,2R,4R)-2-cyano-4-[(3-methyloxetan-3-yl)amino]cyclohexyl}-1H-pyrazole-4-carboxamide] it was 22 nM.
Still for that read-out and setting: the figure for `CC(C)(C)OC(=O)N[C@@H]1CC[C@H](C#N)C(n2cc(C(N)=O)c(Nc3ccc(F)cc3)n2)C1` (single isomer, unassigned) [Example 44-1, tert-Butyl[(1R,3S,4S or 1S,3R,4R)-3-{4-carbamoyl-3-[(4-fluorophenyl)amino]-1H-pyrazol-1-yl}-4-cyanocyclohexyl]carbamate] is 43 nM.
Still for that read-out and setting: in the case of `CC(C)(C)OC(=O)NC1CC[C@@H](C#N)C(n2cc(C(N)=O)c(Nc3ccc(F)cc3)n2)C1` (mixture of isomers) [Example 11-4, tert-butyl [(3R,4S and 3S,4R)-3-{4-carbamoyl-3-[(4-fluorophenyl)amino]-1H-pyrazol-1-yl}-4-cyanocyclohexyl]carbamate] it was 20 nM; in that of `N#C[C@H]1C[C@H](O)CC[C@@H]1n1cc(C(N)=O)c(Nc2ccc(Cl)nc2)n1` (single isomer, unassigned) [Example 25-12, 3-[(6-chloropyridin-3-yl)amino]-1-[(1S,2S,4R or 1R,2R,4S)-2-cyano-4-hydroxycyclohexyl]-1H-pyrazole-4-carboxamide], 20 nM.
As for `N#C[C@H]1C[C@H](O)CC[C@@H]1n1cc(C(N)=O)c(Nc2ccc(C3CC3)cc2)n1` (single isomer, unassigned) [Example 25-14, 1-[(1S,2S,4R or 1R,2R,4S)-2-cyano-4-hydroxycyclohexyl]-3-[(4-cyclopropylphenyl)amino]-1H-pyrazole-4-carboxamide], the concentration for half-maximal inhibition (IC50) in test [1] was found to be 25 nM.
Regarding `CN(C)[C@@H]1CC[C@H](n2cc(C(N)=O)c(Nc3ccc(C(F)(F)F)nc3)n2)[C@@H](C#N)C1` (single isomer, unassigned) [Example 28-25, 1-[(1S,2S,4R or 1R,2R,4S)-2-cyano-4-(dimethylamino)cyclohexyl]-3-{[6-(trifluoromethyl)pyridin-3-yl]amino}-1H-pyrazole-4-carboxamide], the IC50 in test [1] turned out to be 155 nM.
On the same count and under the same terms, in the case of `CC1(C)CN([C@@H]2CC[C@H](n3cc(C(N)=O)c(Nc4ccc([C@@H](O)C(F)(F)F)cc4)n3)[C@@H](C#N)C2)C1` (single isomer, unassigned) [Example 28-81, 1-[(1S,2S,4R or 1R,2R,4S)-2-cyano-4-(3,3-dimethylazetidin-1-yl)cyclohexyl]-3-({4-[(1R or 1S)-2,2,2-trifluoro-1-hydroxyethyl]phenyl}amino)-1H-pyrazole-4-carboxamide] it was 24 nM.
The same measure, in the same setting: in the case of `CC1(CN[C@@H]2CC[C@H](n3cc(C(N)=O)c(Nc4ccc(C(F)(F)F)cc4)n3)[C@@H](C#N)C2)COC1` (single isomer, unassigned) [Example 28-16, 1-[(1S,2S,4R or 1R,2R,4S)-2-cyano-4-{[(3-methyloxetan-3-yl)methyl]amino}cyclohexyl]-3-{[4-(trifluoromethyl)phenyl]amino}-1H-pyrazole-4-carboxamide] it was 21 nM.
Still for that read-out and setting: the figure for `N#C[C@H]1C[C@H](NCCC(F)(F)F)CC[C@@H]1n1cc(C(N)=O)c(Nc2ccc(S(=O)(=O)C(F)(F)F)cc2)n1` (single isomer, unassigned) [Example 28-167, 1-{(1S,2S,4R or 1R,2R,4S)-2-cyano-4-[(3,3,3-trifluoropropyl)amino]cyclo-hexyl}-3-({4-[(trifluoro-methyl)sulfonyl]phenyl}amino)-1H-pyrazole-4-carboxamide] is 82 nM; for `C[C@@H](N[C@@H]1CC[C@H](n2cc(C(N)=O)c(Nc3ccc(S(=O)(=O)C(F)(F)F)cc3)n2)[C@@H](C#N)C1)C1CC1` (single isomer, unassigned) [Example 28-183, 1-{(1S,2S,4R or 1R,2R,4S)-2-cyano-4-[(1-cyclopropylethyl)amino]cyclo-hexyl}-3-({4-[(trifluoromethyl)sulfonyl]phen-yl}amino)-1H-pyrazole-4-carboxamide] it is 61 nM.
`N#C[C@H]1C[C@H](N2CC(O)(C(F)(F)F)C2)CC[C@@H]1n1cc(C(N)=O)c(Nc2ccc(C(F)(F)F)cc2)n1` (single isomer, unassigned) [Example 28-201, 1-{(1S,2S,4R or 1R,2R,4S)-2-cyano-4-[3-hydroxy-3-(trifluoromethyl)azetidin-1-yl]cyclohexyl}-3-{[4-(trifluoromethyl)phenyl]amino}-1H-pyrazole-4-carboxamide]: the 50% inhibitory concentration (IC50) in test [2] stood at 2 nM.
Regarding `N#C[C@@H]1CCCCC1n1cc(C(N)=O)c(Nc2ccc(S(=O)(=O)CC(F)(F)F)cc2)n1` (single isomer, unassigned) [Example 43-8, 1-[(1S,2S or 1R,2R)-2-cyanocyclohexyl]-3-({4-[(2,2,2-trifluoroethyl)sulfonyl]phenyl}amino)-1H-pyrazole-4-carboxamide], in test [2], the IC50 stood at 0.15 nM.
The same measure, in the same setting: the figure for `N#C[C@@H]1CCCCC1n1cc(C(N)=O)c(Nc2ccc(S(=O)(=O)CC(F)(F)F)cc2)n1` (single isomer, unassigned) [Example 43-7, 1-[(1S,2S or 1R,2R)-2-cyanocyclohexyl]-3-({4-[(2,2,2-trifluoroethyl)sulfonyl]phenyl}amino)-1H-pyrazole-4-carboxamide] is 2 nM; for `N#Cc1ccc(Nc2nn([C@H]3CC[C@H](NCC(F)F)C[C@@H]3C#N)cc2C(N)=O)cc1` (single isomer, unassigned) [Example 28-116, 1-{(1S,2S,4S or 1R,2R,4R)-2-cyano-4-[(2,2-difluoroethyl)amino]cyclohexyl}-3-[(4-cyanophenyl)amino]-1H-pyrazole-4-carboxamide] it is 1 nM; for `CO/N=C/c1ccc(Nc2nn([C@H]3CCCC[C@@H]3C#N)cc2C(N)=O)cc1` (single isomer, unassigned) [Example 39, 1-[(1S,2S or 1R, 2R)-2-Cyanocyclohexyl]-3-({4-[(methoxyimino)methyl]phenyl}amino)-1H-pyrazole-4-carboxamide] it is 0.45 nM.
Consider `COC1CN([C@H]2CC[C@H](n3cc(C(N)=O)c(Nc4ccc(C(F)(F)F)cc4)n3)[C@@H](C#N)C2)C1` (single isomer, unassigned) [Example 28-99, 1-[(1S,2S,4S or 1R,2R,4R)-2-cyano-4-(3-methoxyazetidin-1-yl)cyclohexyl]-3-{[4-(trifluoromethyl)phenyl]amino}-1H-pyrazole-4-carboxamide], for which the concentration for half-maximal inhibition (IC50) in test [2] turned out to be 3 nM.
